{
  "source": "ChEMBL document CHEMBL1201862",
  "about": "“PubChem BioAssay data set” (2004)",
  "key": {"[1]": {"system": "H9c2", "experiment": "cells", "format": "functional, cell-based", "conditions": "Rattus norvegicus, H9c2, Myocardium"}, "[2]": {"target": "T1, Leucine aminopeptidase (Plasmodium falciparum 3D7, UniProt Q8IL11)", "T1 sequence (Q8IL11 whole entry)": "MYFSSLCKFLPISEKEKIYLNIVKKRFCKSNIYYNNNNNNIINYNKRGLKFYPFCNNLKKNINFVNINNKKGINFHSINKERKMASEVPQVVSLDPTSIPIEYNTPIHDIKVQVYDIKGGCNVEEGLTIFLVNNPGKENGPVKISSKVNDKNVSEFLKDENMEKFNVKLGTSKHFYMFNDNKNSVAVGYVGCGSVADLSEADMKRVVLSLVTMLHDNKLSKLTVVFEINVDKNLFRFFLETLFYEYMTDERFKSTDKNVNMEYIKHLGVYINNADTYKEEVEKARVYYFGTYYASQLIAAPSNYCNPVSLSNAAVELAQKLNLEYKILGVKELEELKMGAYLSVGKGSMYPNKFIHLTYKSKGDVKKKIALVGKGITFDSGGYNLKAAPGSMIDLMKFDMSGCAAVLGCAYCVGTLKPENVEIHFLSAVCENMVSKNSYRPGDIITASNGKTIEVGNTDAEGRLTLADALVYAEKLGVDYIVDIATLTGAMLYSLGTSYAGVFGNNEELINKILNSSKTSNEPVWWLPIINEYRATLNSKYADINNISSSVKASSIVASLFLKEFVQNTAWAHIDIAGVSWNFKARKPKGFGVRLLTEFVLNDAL", "experiment": "P. falciparum M17LAP inhibitors, primary screen, biochemical, fluorogenic H-Leu-NHMec substrate, 1536-well (AID 1619)", "format": "functional"}, "[3]": {"target": "T2, Cytochrome P450 3A4 (Homo sapiens, UniProt P08684)", "T2 sequence (P08684 whole entry)": "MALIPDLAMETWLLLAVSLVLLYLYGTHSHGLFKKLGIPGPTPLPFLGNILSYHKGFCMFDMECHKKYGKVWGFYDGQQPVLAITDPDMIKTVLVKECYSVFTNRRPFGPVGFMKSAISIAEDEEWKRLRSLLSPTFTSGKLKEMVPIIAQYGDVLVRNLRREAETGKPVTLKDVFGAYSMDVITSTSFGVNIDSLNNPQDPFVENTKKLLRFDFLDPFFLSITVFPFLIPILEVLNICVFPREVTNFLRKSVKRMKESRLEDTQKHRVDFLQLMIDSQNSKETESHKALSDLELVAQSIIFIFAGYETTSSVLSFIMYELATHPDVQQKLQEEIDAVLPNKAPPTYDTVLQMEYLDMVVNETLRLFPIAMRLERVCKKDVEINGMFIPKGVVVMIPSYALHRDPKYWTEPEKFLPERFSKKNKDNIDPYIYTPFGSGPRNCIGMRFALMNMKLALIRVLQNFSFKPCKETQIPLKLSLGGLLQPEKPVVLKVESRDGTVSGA"}, "[4]": {"system": "Streptococcus", "experiment": "Group A Streptococcus viability loss, dose response, counter-screen for streptokinase expression inhibitor project, luminescence, BacTiterGlo (AID 1915);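 also: potency for reduction of bacterial viability or growth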", "format": "functional, organism-based"}, "[5]": {"system": "Streptococcus sp. 'group A'", "experiment": "growth inhibition of control SK(-) GAS strain, dose response, counter-screen for streptokinase expression inhibitor project, luminescence, kanamycin, BacTiterGlo, confirmation (AID 1900)", "format": "functional, organism-based"}, "[6]": {"target": "T3, Streptokinase A (Streptococcus pyogenes serotype M1, UniProt P10520)", "T3 sequence (P10520 whole entry)": "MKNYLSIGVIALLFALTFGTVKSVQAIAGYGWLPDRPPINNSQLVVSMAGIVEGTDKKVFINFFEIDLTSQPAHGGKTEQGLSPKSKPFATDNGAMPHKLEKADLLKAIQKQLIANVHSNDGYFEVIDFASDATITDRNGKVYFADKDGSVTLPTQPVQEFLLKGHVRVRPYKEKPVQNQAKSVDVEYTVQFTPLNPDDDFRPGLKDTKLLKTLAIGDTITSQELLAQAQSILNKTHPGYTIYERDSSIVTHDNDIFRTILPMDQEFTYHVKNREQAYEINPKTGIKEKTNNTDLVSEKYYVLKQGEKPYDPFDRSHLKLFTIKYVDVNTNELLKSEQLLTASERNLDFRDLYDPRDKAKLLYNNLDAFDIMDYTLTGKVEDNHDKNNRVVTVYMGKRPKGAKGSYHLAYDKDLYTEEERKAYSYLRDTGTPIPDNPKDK", "experiment": "S. pyogenes streptokinase expression inhibitors, potency, dose response, plasminogen activation absorbance, OD405 (AID 1914);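 also: secreted streptokinase activity via plasminogen activation per viability signal from cell pellet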", "format": "functional, Streptococcus pyogenes M1 GAS"}, "[7]": {"target": "T2, Cytochrome P450 3A4", "conditions": "Potency"}, "[8]": {"target": "T4, Short transient receptor potential channel 4 (Mus musculus, UniProt Q9QUQ5)", "T4 sequence (Q9QUQ5 whole entry)": "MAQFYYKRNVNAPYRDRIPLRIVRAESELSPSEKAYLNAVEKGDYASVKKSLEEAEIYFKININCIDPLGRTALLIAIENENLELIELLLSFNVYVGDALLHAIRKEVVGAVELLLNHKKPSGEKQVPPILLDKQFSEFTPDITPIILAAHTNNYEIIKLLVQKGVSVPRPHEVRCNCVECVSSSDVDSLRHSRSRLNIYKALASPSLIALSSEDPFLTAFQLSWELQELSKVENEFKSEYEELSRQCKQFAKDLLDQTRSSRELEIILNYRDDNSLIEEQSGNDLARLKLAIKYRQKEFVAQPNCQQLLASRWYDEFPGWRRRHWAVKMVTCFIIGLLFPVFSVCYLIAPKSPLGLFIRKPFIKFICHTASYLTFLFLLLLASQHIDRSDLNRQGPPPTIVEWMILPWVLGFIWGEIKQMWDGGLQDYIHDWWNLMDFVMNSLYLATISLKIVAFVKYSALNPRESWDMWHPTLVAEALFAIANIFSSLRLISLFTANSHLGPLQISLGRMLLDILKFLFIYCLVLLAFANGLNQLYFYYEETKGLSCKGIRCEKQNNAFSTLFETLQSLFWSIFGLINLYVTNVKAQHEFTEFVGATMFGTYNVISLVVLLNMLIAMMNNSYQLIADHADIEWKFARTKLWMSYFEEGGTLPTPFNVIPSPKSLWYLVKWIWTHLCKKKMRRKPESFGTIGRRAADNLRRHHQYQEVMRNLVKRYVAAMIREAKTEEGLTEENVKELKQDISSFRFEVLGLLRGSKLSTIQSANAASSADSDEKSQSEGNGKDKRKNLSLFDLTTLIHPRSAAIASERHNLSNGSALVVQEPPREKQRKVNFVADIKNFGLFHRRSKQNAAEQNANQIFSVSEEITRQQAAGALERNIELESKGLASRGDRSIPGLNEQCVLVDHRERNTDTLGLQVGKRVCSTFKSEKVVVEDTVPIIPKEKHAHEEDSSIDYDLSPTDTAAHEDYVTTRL", "experiment": "mouse TRPC4 channel inhibitors, dose response, cell-based, HEK293 TRPC4/mu-opioid, Fluo-4 calcium (AID 434942)", "format": "functional"}, "[9]": {"experiment": "Luminescence Cell-Based Dose Response HTS to Identify Inhibitors of 5'UTR Stem-Loop Driven Prion Protein mRNA Translation in H4 Neuroglioblastoma Cells. [Related pubchem assays: 1827 (Project Summary), 1813 (Primary HTS)]", "format": "functional"}, "[10]": {"experiment": "inhibitors of SNCA 5'UTR-driven reporter translation, confirmation, H4 neuroglioma cells, luminescence (AID 1988)", "format": "functional, cell-based"}, "[11]": {"experiment": "inhibitors of firefly luciferase expression or activity, dose response, H4 neuroglioma cells, luminescence (AID 1990)", "format": "functional, cell-based"}, "[12]": {"target": "T5, Rac GTPase-activating protein 1 (Homo sapiens, UniProt Q9H0H5)", "T5 sequence (Q9H0H5 whole entry)": "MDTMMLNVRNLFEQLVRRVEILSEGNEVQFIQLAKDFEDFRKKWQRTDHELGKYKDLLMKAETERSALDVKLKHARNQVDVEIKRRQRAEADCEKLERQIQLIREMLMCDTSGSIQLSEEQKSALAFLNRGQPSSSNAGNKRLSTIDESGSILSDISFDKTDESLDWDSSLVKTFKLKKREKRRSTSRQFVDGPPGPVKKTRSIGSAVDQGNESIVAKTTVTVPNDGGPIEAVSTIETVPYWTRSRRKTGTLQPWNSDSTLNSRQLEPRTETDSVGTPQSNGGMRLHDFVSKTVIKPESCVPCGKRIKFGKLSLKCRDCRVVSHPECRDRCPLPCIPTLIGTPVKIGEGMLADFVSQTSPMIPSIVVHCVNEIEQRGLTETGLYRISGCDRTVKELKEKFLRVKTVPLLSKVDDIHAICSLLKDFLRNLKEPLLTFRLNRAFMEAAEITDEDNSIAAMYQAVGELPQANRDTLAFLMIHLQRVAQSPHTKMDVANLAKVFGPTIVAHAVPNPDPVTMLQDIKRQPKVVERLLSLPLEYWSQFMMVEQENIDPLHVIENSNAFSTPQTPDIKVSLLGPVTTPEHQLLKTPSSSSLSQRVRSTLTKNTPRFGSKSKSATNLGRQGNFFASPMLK", "experiment": "MgcRacGAP GTPase-activating activity inhibitors, confirmation, biochemical, ADP Hunter fluorescence, primary and confirmatory (AID 624330)", "format": "functional"}},
  "note": "Activity calls are given as the source filed them.",
  "data": [
    {"compound": "Cc1ccc(C=NNc2nc3c(=O)n(C)c(=O)n(C)c3[nH]2)cc1", "values": [
      {"measurement": "IC50", "setting": "[1]", "value": "> 79 µM (inactive)"}
    ]},
    {"compound": "CC1=NNC(=O)C1CCC(=O)N/N=C\\c1ccccc1[N+](=O)[O-]", "note": "(configuration not stated)", "values": [
      {"measurement": "IC50", "setting": "[2]", "value": "3.14 µM (active)"},
      {"measurement": "AC50", "setting": "[3]", "value": "17.8 µM (inconclusive)"}
    ]},
    {"compound": "N#C/C(=C\\c1cn(-c2ccccc2)nc1-c1cccnc1)c1nnc2n1CCCCC2", "values": [
      {"measurement": "IC50", "setting": "[1]", "value": "15.8 µM (active)"}
    ]},
    {"compound": "O=C(NC(=S)NNC(=O)c1ccc(Cl)cc1Cl)c1cccnc1", "values": [
      {"measurement": "IC50", "setting": "[2]", "value": "49.6 µM (active)"},
      {"measurement": "EC50", "setting": "[4]", "value": "96.5 µM (active)"},
      {"measurement": "EC50", "setting": "[5]", "value": "5.27 µM (active)"},
      {"measurement": "EC50", "setting": "[6]", "value": "> 150 µM (not active)"}
    ]},
    {"compound": "O=C(O[C@@H]1Cc2c(O)cc(O)cc2OC1c1ccc(O)c(O)c1)c1cc(O)c(O)c(O)c1", "note": "(some centres not stated)", "values": [
      {"measurement": "AC50", "setting": "[7]", "value": "25.1 µM (inconclusive)"}
    ]},
    {"compound": "Cc1nc2c3cc(Cl)ccc3n(CCN3CCCCC3)c2s1", "values": [
      {"measurement": "EC50", "setting": "[8]", "value": "4.22 µM (active)"}
    ]},
    {"compound": "CCOC(=O)c1c(NC(=O)C2C3C=CC(C3)C2C(=O)O)sc2c1CC(C)CC2", "note": "(configuration not stated)", "values": [
      {"measurement": "IC50", "setting": "[2]", "value": "10.1 µM (active)"},
      {"measurement": "EC50", "setting": "[9]", "value": "60.9 µM (active)"},
      {"measurement": "EC50", "setting": "[10]", "value": "48.1 µM (active)"},
      {"measurement": "EC50", "setting": "[11]", "value": "> 120 µM (not active)"}
    ]},
    {"compound": "O=C(Nc1ccccc1)N1CCN2C(=O)c3ccccc3C12c1ccccc1", "note": "(configuration not stated)", "values": [
      {"measurement": "EC50", "setting": "[8]", "value": "2.11 µM (active)"}
    ]},
    {"compound": "Cc1sc2nc(SCC(=O)N3CCCC3)nc(O)c2c1C", "values": [
      {"measurement": "IC50", "setting": "[1]", "value": "> 79 µM (inactive)"}
    ]},
    {"compound": "CCOC(=O)C1CCN(c2cc3c(cc2NC(=O)c2ccccc2)n(C)c(=O)n3C)CC1", "values": [
      {"measurement": "IC50", "setting": "[1]", "value": "> 79 µM (inactive)"}
    ]},
    {"compound": "Cc1cc(=O)oc2c(O)c(O)ccc12", "note": "[4-METHYLDAPHNETIN]", "values": [
      {"measurement": "IC50", "setting": "[12]", "value": "25.9 µM (active)"},
      {"measurement": "AC50", "setting": "[7]", "value": "25.1 µM (inconclusive)"}
    ]},
    {"compound": "NS(=O)(=O)c1cccc(NC(=O)COC(=O)Cc2nnc(O)c3ccccc23)c1", "values": [
      {"measurement": "IC50", "setting": "[1]", "value": "> 79 µM (inactive)"}
    ]},
    {"compound": "COc1ccc(Br)cc1CNC(C)c1ccccc1", "note": "(configuration not stated)", "values": [
      {"measurement": "EC50", "setting": "[8]", "value": "5.31 µM (active)"}
    ]},
    {"compound": "COc1ccc(NC(=O)c2cccc(N3C(=O)C4CC=C(C)CC4C3=O)c2)c(OC)c1", "note": "(configuration not stated)", "values": [
      {"measurement": "EC50", "setting": "[8]", "value": "0.0173 µM (active)"}
    ]},
    {"compound": "COc1ccc2c(=O)cc(-c3ccccc3)oc2c1O", "values": [
      {"measurement": "AC50", "setting": "[7]", "value": "39.8 µM (inconclusive)"}
    ]},
    {"compound": "CC1(C)C(O)CC(O)[C@]2(C)C1CC(O)[C@]1(C)C2CC[C@@]2(C)C(c3ccoc3)CC3OC312", "note": "(some centres not stated)", "values": [
      {"measurement": "AC50", "setting": "[7]", "value": "3.16 µM (inconclusive)"}
    ]},
    {"compound": "COCCN(CCOC)c1nc(C)nc2c1nc(-c1ccccc1)n2CCCN(C)C", "values": [
      {"measurement": "AC50", "setting": "[7]", "value": "7.94 µM (inconclusive)"}
    ]},
    {"compound": "CCCCN(CC)c1c([N+](=O)[O-])cc(C(F)(F)F)cc1[N+](=O)[O-]", "note": "[BENFLURALIN]", "values": [
      {"measurement": "AC50", "setting": "[7]", "value": "15.8 µM (inconclusive)"}
    ]},
    {"compound": "Cc1ccc(NC(=O)CCc2nc(O)c3ccccc3n2)cc1S(=O)(=O)N1CCOCC1", "values": [
      {"measurement": "IC50", "setting": "[1]", "value": "> 79 µM (inactive)"}
    ]}
  ]
}
